The assay deals with AMPA receptor. Briefly: rat cortical slice, responses to AMPA (apparent equilibrium constant from righthand shift in concentration-response curve). It counts as cell-based. Particulars: righthand shift in the AMPA concentration-response curve. The protocol:
The compounds useful in this invention potently and selectively block responses to NMDA and/or AMPA in a brain slice from rat cortex, and inhibit the binding of agonists and antagonists to the strychnine-insensitive site present on the NMDA receptor and/or AMPA binding to rat forebrain membranes.
The effects of compounds of the invention on responses to NMDA and AMPA were assessed using the rat cortical slice as described by Wong et al., Proc. Natl. Acad. Sci. USA, 1986, 83, 7104. The apparent equilibrium constant (Kb) was calculated from the righthand shift in the NMDA or AMPA concentration-response curves produced by the compound under test.

One compound from patent publication US5376748A, “Nitroquinolone derivatives” (Merck Sharp & Dohme Limited, priority 1992, dated 1994) can be followed below.

With `O=C1Nc2cc(Cl)ccc2CC1[N+](=O)[O-]` (stereo not shown) [Example 2, 7-Chloro-3-nitro-3,4-dihydroquinolin-2-one], the Kb was less than 150 µM.
